Read-outs that look alike come from different tables or passages of the source.
What was measured:
NA transporter = target: T1, NA transporter (Rattus norvegicus, UniProt Q63380); assay: noradrenalin uptake inhibition in rat brain synaptosomes (hypothalamus); assay type: biochemical; parameters: concentration or dose not given beside the values; settings: conc. 10 (unit not given), [3H]-NA
T1 construct: Synaptosomes from rat brain regions (the “P2” fraction was used) were freshly isolated; from tissue; host or cells: rat brain synaptosomes (P2 fraction), hypothalamus
Description: (§1) c) Method for Determining Noradrenalin and the 5-HT Uptake Inhibition:
(§2) Synaptosomes from rat brain regions (the “P2” fraction was used) were freshly isolated for in vitro studies, as described in the publication “The isolation of nerve endings from brain” by E. G. Gray and V. P. Whittaker, J. Anatomy 76, pages 79-88, 1962. The corresponding literature description is hereby introduced as a reference and is deemed to be part of the disclosure.
(§3) The tissue (hypothalamus for the determination of noradrenalin uptake inhibition and medulla and pons for the determination of 5-HT uptake inhibition) was homogenised in ice-cooled 0.32 M sucrose (100 mg of tissue/1 mL) in a glass homogeniser with teflon pestle using five complete up and down strokes at 840 revolutions/minute.
(§4) The homogenate was centrifuged at 4° C. for 10 minutes at 1000 g. After subsequent centrifugation at 17000 g for 55 minutes, the synaptosomes (P2 fraction) were obtained, which were resuspended in 0.32 M glucose (0.5 mL/100 mg of original weight).
(§5) The particular uptake was measured in a 96-well microtitre plate. The volume was 250 μl and the incubation proceeded at room temperature (approx. 20-25° C.) under an O2 atmosphere.
(§6) The incubation time was 7.5 minutes for [^3H]-NA and 5 minutes for [^3H]-5-HT. The 96 samples were then filtered through a Unifilter GF/B® microtitre plate (Packard) and washed with […] of incubated buffer using a “Brabdel MPXRI-96T Cell-Harvester”. The Unifilter GF/B plate was dried for 1 hour at 55° C. The plate was then sealed with a Back seal® (Packard) and 35 μl of scintillation fluid were added per well (Ultima gold®, Packard). After sealing with a top seal® (Packard) and establishment of equilibrium (around 5 hours), radioactivity was determined in a “Trilux 1450 Microbeta” (Wallac).
The following characteristics were determined for the NA transporter: NAuptake: Km=0.32±0.11 μM
(§7) The quantity of protein used in the above determination corresponded to the values known from the literature, as for example described in “Protein measurement with the folin phenol reagent”, Lowry et al., J. Biol. Chem., 193, 265-275, 1951. A detailed description of the method may also be found in the literature, for example in M.Ch. Frink, H.-H. Hennies, W. Engelberger, M. Haurand and B. Wilffert (1996) Arzneim.-Forsch./Drug Res. 46 (III), 11, 1029-1036. The corresponding literature descriptions are hereby introduced as a reference and are deemed to be part of the disclosure.

human μ opiate receptor = human μ opiate receptor (Homo sapiens, UniProt P35372); assay: human μ opiate receptor binding assay with [3H]-naloxone, CHO-K1 membrane preparation; settings: for inhibition at 1 µM: read-out: Human ORm Nal inhibition [%]
Method: b) Method for Determining Affinity for the Human μ Opiate Receptor
Receptor affinity for the human μ opiate receptor was determined in a homogeneous batch in microtitre plates. To this end, dilution series of the particular substituted 5-aminomethyl-1H-pyrrole-2-carboxylic acid amide of the general formula I to be tested were incubated at room temperature for 90 minutes in a total volume of 250 μl with a receptor membrane preparation (15-40 μg of protein per 250 μl of incubation batch) of CHO—K1 cells, which express the human μ opiate receptor (RB—HOM receptor membrane preparation from NEN, Zaventem, Belgium) in the presence of 1 nmol/l of the radioactive ligand [^3H]-naloxone (NET719, from NEN, Zaventem, Belgium) and of 1 mg of WGA-SPA beads (wheat germ agglutinin SPA beads from Amersham/Pharmacia, Freiburg, Germany). The incubation buffer used was 50 mmol/l tris-HCl supplemented with 0.05 wt. % of sodium azide and with 0.06 wt. % of bovine serum albumin. 25 μmol/l of naloxone were additionally added to determine nonspecific binding. Once the ninety minute incubation time had elapsed, the microtitre plates were centrifuged off for 20 minutes at 1000 g and the radioactivity measured in a β-Counter (Microbeta-Trilux, from PerkinElmer Wallac, Freiburg, Germany). The percentage displacement of the radioactive ligand from its binding to the human μ opiate receptor was determined at a concentration of the compounds to be tested of 1 μmol/l and stated as percentage inhibition of specific binding. On the basis of the percentage displacement by different concentrations of the compounds to be tested of the general formula I, IC50 inhibition concentrations which bring about 50% displacement of the radioactive ligand were calculated. Ki values for the test substances were obtained by conversion using the Cheng-Prusoff equation.

5-HT uptake = target: T2, 5-HT uptake (Rattus norvegicus, UniProt P31652); assay: 5-HT uptake inhibition in rat brain synaptosomes (medulla and pons); assay type: biochemical; parameters: concentration or dose not given beside the values; settings: conc. 10 (unit not given), [3H]-5-HT
T2 construct: Synaptosomes from rat brain regions (the “P2” fraction was used) were freshly isolated; from tissue; host or cells: rat brain synaptosomes (P2 fraction), medulla and pons
Description: as §1, §2, §3, §4, §5, §6, §7

[1] = [3H]-naloxone, from IC50 by the Cheng-Prusoff equation, read-out: Human ORm Nal Ki

human μ opiate receptor, sequence (P35372 whole entry): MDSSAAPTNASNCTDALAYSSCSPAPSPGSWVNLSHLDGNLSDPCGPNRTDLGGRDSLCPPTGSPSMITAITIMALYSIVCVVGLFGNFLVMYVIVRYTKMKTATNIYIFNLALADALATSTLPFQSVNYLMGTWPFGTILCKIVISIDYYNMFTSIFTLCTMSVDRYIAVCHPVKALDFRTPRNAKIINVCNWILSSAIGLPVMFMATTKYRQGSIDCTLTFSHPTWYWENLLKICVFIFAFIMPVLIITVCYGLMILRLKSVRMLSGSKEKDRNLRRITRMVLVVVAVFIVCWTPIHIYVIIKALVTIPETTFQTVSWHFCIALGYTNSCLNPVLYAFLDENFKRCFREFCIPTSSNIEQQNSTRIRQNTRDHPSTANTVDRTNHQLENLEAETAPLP
T1 sequence (Q63380 1-617): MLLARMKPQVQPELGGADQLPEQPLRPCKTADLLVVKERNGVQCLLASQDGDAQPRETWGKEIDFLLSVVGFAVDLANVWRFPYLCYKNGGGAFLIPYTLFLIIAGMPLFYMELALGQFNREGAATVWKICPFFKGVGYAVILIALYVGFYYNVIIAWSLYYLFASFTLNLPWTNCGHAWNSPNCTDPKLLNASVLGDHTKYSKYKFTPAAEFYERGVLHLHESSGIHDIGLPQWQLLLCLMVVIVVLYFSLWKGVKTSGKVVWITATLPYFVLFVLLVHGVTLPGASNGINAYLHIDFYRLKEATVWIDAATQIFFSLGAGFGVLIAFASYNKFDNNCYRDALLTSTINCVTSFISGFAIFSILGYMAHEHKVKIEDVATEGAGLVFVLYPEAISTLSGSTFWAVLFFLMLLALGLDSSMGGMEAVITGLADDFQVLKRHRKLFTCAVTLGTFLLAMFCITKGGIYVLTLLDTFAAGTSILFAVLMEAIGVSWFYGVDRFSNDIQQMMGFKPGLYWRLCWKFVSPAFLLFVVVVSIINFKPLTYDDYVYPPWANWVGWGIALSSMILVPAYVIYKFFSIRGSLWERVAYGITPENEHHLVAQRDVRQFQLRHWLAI
T2 sequence (P31652 whole entry): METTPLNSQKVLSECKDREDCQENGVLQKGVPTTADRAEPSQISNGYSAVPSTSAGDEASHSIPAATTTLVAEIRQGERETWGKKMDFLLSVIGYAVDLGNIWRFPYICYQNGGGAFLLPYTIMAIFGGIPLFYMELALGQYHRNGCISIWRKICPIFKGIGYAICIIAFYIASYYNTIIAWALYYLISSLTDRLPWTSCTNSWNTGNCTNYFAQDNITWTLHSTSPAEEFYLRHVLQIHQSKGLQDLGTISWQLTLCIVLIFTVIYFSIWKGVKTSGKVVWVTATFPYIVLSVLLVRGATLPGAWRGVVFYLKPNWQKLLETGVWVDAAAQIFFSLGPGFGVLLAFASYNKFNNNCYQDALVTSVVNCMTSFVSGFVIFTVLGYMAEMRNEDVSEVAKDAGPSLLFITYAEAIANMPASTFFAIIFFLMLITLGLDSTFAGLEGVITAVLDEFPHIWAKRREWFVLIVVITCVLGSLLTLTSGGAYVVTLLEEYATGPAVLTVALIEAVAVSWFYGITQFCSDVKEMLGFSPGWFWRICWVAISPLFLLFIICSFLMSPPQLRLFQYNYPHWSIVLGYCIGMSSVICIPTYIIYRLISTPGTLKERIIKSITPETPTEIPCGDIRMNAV

Row | SMILES | Noradrenalin uptake inhibition [%] conc. 10 (NA transporter) | Ki (human μ opiate receptor) | inhibition at 1 µM (human μ opiate receptor) | 5-HT uptake inhibition [%] conc. 10 (5-HT uptake) | Ki (human μ opiate receptor; [1])
1 | CN(C)C(c1ccc(F)cc1)c1ccc(C(=O)NC2CCCCC2)n1C.Cl (centres unmarked) [Example 1, 5-[Dimethylamino-(4-fluoro-phenyl)-methyl]-1-methyl-1H-pyrrole-2-carboxylic acid cyclohexylamide hydrochloride] | 80% | 160 nM | 62% | 57% | 
2 | CCCCNC(=O)c1ccc(C(c2ccc(F)cc2)N(C)C)n1C.Cl (centres unmarked) [Example 2, 5-[Dimethylamino-(4-fluoro-phenyl)-methyl]-1-methyl-1H-pyrrole-2-carboxylic acid butylamide hydrochloride] | 72% |  | 49% | 52% | 360 nM
3 | CN(C)C(c1ccc(F)cc1)c1ccc(C(=O)N2CCCC2)n1C.Cl (centres unmarked) [Example 3, {5-[Dimethylamino-(4-fluoro-phenyl)-methyl]-1-methyl-1H-pyrrol-2-yl}-pyrrolidin-1-yl-methanone hydrochloride] | 38% |  |  |  | 
4 | CN(C)C(c1ccc(Br)cc1)c1ccc(C(=O)NC2CCCCC2)n1C.Cl (centres unmarked) [Example 4, 5-[Dimethylamino-(4-bromo-phenyl)-methyl]-1-methyl-1H-pyrrole-2-carboxylic acid cyclohexylamide hydrochloride] | 93% |  | 80% | 72% | 790 nM
5 | CCCCNC(=O)c1ccc(C(c2ccc(Br)cc2)N(C)C)n1C.Cl (centres unmarked) [Example 5, 5-[Dimethylamino-(4-bromo-phenyl)-methyl]-1-methyl-1H-pyrrole-2-carboxylic acid butylamide hydrochloride] | 86% |  | 62% | 57% | 
6 | CN(C)C(c1ccc(Br)cc1)c1ccc(C(=O)N2CCCC2)n1C.Cl (centres unmarked) [Example 6, {5-[(4-Bromo-phenyl)-dimethylamino-methyl]-1-methyl-1H-pyrrol-2-yl)-pyrrolidin-1-yl-methanone hydrochloride] | 83% |  |  | 51% | 
7 | CN(C)C(c1ccc(Br)cc1)c1ccc(C(=O)NCCc2ccccc2)n1C.Cl (centres unmarked) [Example 7, 5-[(4-Bromo-phenyl)-dimethylamino-methyl]-1-methyl-1H-pyrrole-2-carboxylic acid phenethylamide hydrochloride] | 95% | 1000 nM | 65% | 93% | 
8 | CN(C)C(c1ccc(Br)cc1)c1ccc(C(=O)N2CCOCC2)n1C.Cl (centres unmarked) [Example 8, {5-[(4-Bromo-phenyl)-dimethylamino-methyl]-1-methyl-1H-pyrrol-2-yl}-morpholin-4-yl-methanone hydrochloride] | 43% |  |  | 79% | 
9 | CN(C)C(c1ccccc1)c1ccc(C(=O)NC2CCCCC2)n1C.Cl (centres unmarked) [Example 9, 5-(Dimethylamino-phenyl-methyl)-1-methyl-1H-pyrrole-2-carboxylic acid cyclohexylamide hydrochloride] | 70% |  | 76% |  | 
10 | CCCCNC(=O)c1ccc(C(c2ccccc2)N(C)C)n1C.Cl (centres unmarked) [Example 10, 5-(Dimethylamino-phenyl-methyl)-1-methyl-1H-pyrrole-2-carboxylic acid butylamide hydrochloride] | 52% |  |  |  | 
11 | CN(C)C(c1ccccc1)c1ccc(C(=O)N2CCCC2)n1C.Cl (centres unmarked) [Example 11, [5-(Dimethylamino-phenyl-methyl)-1-methyl-1H-pyrrol-2-yl]-pyrrolidin-1-yl-methanone hydrochloride] |  |  | 33% | 54% | 

Source: US7229991B2, “Substituted 5-aminomethyl-1H-pyrrole-2-carboxamides” (priority 2002, dated 2007)
